{"source": "patent US9556143B2", "about": "“Metalloenzyme inhibitor compounds” (Viamet Pharmaceuticals, Inc., priority 2011, dated 2017)"}
{"tested_on": "Puccinia recondita tritici = Puccinia triticina (PUCCRT)", "experiment": "Fungicidal activity vs. wheat leaf rust", "type": "in vivo, Puccinia recondita tritici on wheat (variety Yuma)", "details": "% disease control @ 50 ppm, wheat seedlings sprayed, inoculated the following day, severity evaluated 7-9 days later, read-out: Puccinia Rating", "excerpt": "D. Evaluation of Fungicidal Activity Vs. Leaf Rust (Causal Agent Puccinia recondita tritici=Puccinia triticina; Bayer code PUCCRT). […] Each pot contained 3-8 seedlings. These plants were sprayed until wet with the formulated test compounds. The compounds were formulated at 50 ppm in 10 vol. % acetone plus 90 vol. % Triton X water (deionized water 99.99 wt %+0.01 wt % Triton X100), giving a “formulated test compound.” Formulated test compounds were applied to plants using a turn table sprayer fitted with two opposing air atomization nozzles which delivered approximately 1500 L/ha of spray volume. On the following day, the leaves were inoculated with an aqueous spore suspension of Puccinia recondita tritici and the plants were kept in high humidity overnight to permit spores to germinate and infect the leaf. The plants were then transferred to a greenhouse until disease developed on untreated control plants. Disease severity was evaluated 7-9 days later, depending on the speed of disease development. In each case of Table 3, the Puccinia rating scale is as follows: […]", "units": {"pest or weed control at 50 ppm": "%"}}
{"smiles": "OC(Cn1cnnn1)(c1ccc(F)cc1F)C(F)(F)c1ccccn1", "note": "(stereo not drawn) [2(−), 2-(2,4-Difluorophenyl)-1,1-difluoro-1-(pyridin-2-yl)-3-(1H-tetrazol-1-yl)propan-2-ol]", "pest or weed control at 50 ppm": "80 to 100"}
{"smiles": "OC(Cn1cnnn1)(c1ccc(F)cc1F)C(F)(F)c1ccc(Br)cn1", "note": "(stereo not shown) [Compound 1, 1-(5-Bromopyridin-2-yl)-2-(2,4-difluorophenyl)-1,1-difluoro-3-(1H-tetrazol-1-yl)propan-2-ol]", "pest or weed control at 50 ppm": "80 to 100"}
{"smiles": "OC(Cn1cnnn1)(c1ccc(F)cc1F)C(F)(F)c1ccc(/C=C/COCC(F)(F)F)cn1", "note": "(stereo not shown) [Compound 6, (E)-2-(2,4-Difluorophenyl)-1,1-difluoro-3-(1H-tetrazol-1-yl)-1-(5-(3-(2,2,2-trifluoroethoxy)prop-1-en-1-yl)pyridin-2-yl)propan-2-ol]", "pest or weed control at 50 ppm": "< 40"}
{"smiles": "OC(Cn1cnnn1)(c1ccc(F)cc1F)C(F)(F)c1ccc(F)cn1", "note": "(stereo not shown) [Compound 10, 2-(2,4-Difluorophenyl)-1,1-difluoro-1-(5-fluoropyridin-2-yl)-3-(1H-tetrazol-1-yl)propan-2-ol]", "pest or weed control at 50 ppm": "80 to 100"}
{"smiles": "OC(Cn1cnnn1)(c1ccc(F)cc1F)C(F)(F)c1ccc(CC(F)(F)F)cn1", "note": "(stereo not shown) [Compound 17, 2-(2,4-Difluorophenyl)-1,1-difluoro-3-(1H-tetrazol-1-yl)-1-(5-(2,2,2-trifluoroethyl)pyridin-2-yl)propan-2-ol]", "pest or weed control at 50 ppm": "80 to 100"}
{"smiles": "OC(Cn1cnnn1)(c1ccc(F)cc1F)C(F)(F)c1ccc(C2CC2)cn1", "note": "(stereo not shown) [Compound 18, 1-(5-Cyclopropylpyridin-2-yl)-2-(2,4-difluorophenyl)-1,1-difluoro-3-(1H-tetrazol-1-yl)propan-2-ol]", "pest or weed control at 50 ppm": "80 to 100"}
{"smiles": "OC(Cn1cnnn1)(c1ccc(Cl)cc1F)C(F)(F)c1ccc(Br)cn1", "note": "(stereo not shown) [Compound 22, 1-(5-Bromopyridin-2-yl)-2-(4-chloro-2-fluorophenyl)-1,1-difluoro-3-(1H-tetrazol-1-yl)propan-2-ol]", "pest or weed control at 50 ppm": "80 to 100"}
{"smiles": "Cc1ccc(C(F)(F)C(O)(Cn2cnnn2)c2ccc(F)cc2F)nc1", "note": "(stereo not shown) [Compound 25, 2-(2,4-Difluorophenyl)-1,1-difluoro-1-(5-methylpyridin-2-yl)-3-(1H-tetrazol-1-yl)propan-2-ol]", "pest or weed control at 50 ppm": "80 to 100"}
{"smiles": "OC(Cn1cnnn1)(c1ccc(Cl)cc1F)C(F)(F)c1ccc(Cl)cn1", "note": "(stereo not shown) [Compound 26, 2-(4-Chloro-2-fluorophenyl)-1-(5-chloropyridin-2-yl)-1,1-difluoro-3-(1H-tetrazol-1-yl)propan-2-ol]", "pest or weed control at 50 ppm": "80 to 100"}
{"smiles": "OC(Cn1cnnn1)(c1ccc(Cl)cc1F)C(F)(F)c1ccc(F)cn1", "note": "(stereo not shown) [Compound 27, 2-(4-Cloro-2-fluorophenyl)-1,1-difluoro-1-(5-fluoropyridin-2-yl)-3-(1H-tetrazol-1-yl)propan-2-ol]", "pest or weed control at 50 ppm": "80 to 100"}
{"smiles": "OC(Cn1cnnn1)(c1ccc(Cl)cc1F)C(F)(F)c1ccc(-n2nccn2)cn1", "note": "(stereo not shown) [Compound 28, 1-(5-(2H-1,2,3-Triazol-2-yl)pyridin-2-yl)-2-(4-chloro-2-fluorophenyl)-1,1-difluoro-3-(1H-tetrazol-1-yl)propan-2-ol]", "pest or weed control at 50 ppm": "80 to 100"}
{"smiles": "OC(Cn1cncn1)(c1ccc(F)cc1F)C(F)(F)c1ccc(Cl)cn1", "note": "(stereo not shown) [Compound 29, 1-(5-Chloropyridin-2-yl)-2-(2,4-difluorophenyl)-1,1-difluoro-3-(1H-1,2,4-triazol-1-yl)propan-2-ol]", "pest or weed control at 50 ppm": "80 to 100"}
{"smiles": "COc1ccc(-c2ccc(C(F)(F)C(O)(Cn3cnnn3)c3ccc(F)cc3F)nc2)s1", "note": "(stereo not shown) [Compound 32, 2-(2,4-Difluorophenyl)-1,1-difluoro-1-(5-(5-methoxythiophen-2-yl)pyridin-2-yl)-3-(1H-tetrazol-1-yl)propan-2-ol]", "pest or weed control at 50 ppm": "40 to 59"}
{"smiles": "OC(Cn1cnnn1)(c1ccc(F)cc1F)C(F)(F)c1ccc(-c2ccc(C(F)F)s2)cn1", "note": "(stereo not shown) [Compound 33, 1-(5-(5-(Difluoromethyl)thiophen-2-yl)pyridin-2-yl)-2-(2,4-difluorophenyl)-1,1-difluoro-3-(1H-tetrazol-1-yl)propan-2-ol]", "pest or weed control at 50 ppm": "80 to 100"}
{"smiles": "OC(Cn1cnnn1)(c1ccc(F)cc1F)C(F)(F)c1ccc(-c2ccc(C(F)(F)F)s2)cn1", "note": "(stereo not shown) [Compound 34, 2-(2,4-Difluorophenyl)-1,1-difluoro-3-(1H-tetrazol-1-yl)-1-(5-(5-(trifluoromethyl)thiophen-2-yl)pyridin-2-yl)propan-2-ol]", "pest or weed control at 50 ppm": "80 to 100"}
{"smiles": "OC(Cn1cnnn1)(c1ccc(F)cc1F)C(F)(F)c1ccc(-c2nccs2)cn1", "note": "(stereo not shown) [Compound 38, 2-(2,4-Difluorophenyl)-1,1-difluoro-3-(1H-tetrazol-1-yl)-1-(5-(thiazol-2-yl)pyridin-2-yl)propan-2-ol]", "pest or weed control at 50 ppm": "80 to 100"}
{"smiles": "OC(Cn1cnnn1)(c1ccc(Cl)cc1F)C(F)(F)c1ccc(CC(F)(F)F)cn1", "note": "(stereo not shown) [Compound 39, 2-(4-Chloro-2-fluorophenyl)-1,1-difluoro-3-(1H-tetrazol-1-yl)-1-(5-(2,2,2-trifluoroethyl)pyridin-2-yl)propan-2-ol]", "pest or weed control at 50 ppm": "80 to 100"}
{"smiles": "OC(Cn1cnnn1)(c1ccc(Cl)cc1F)C(F)(F)c1ccc(C2CC2)cn1", "note": "(stereo not shown) [Compound 40, 2-(4-Chloro-2-fluorophenyl)-1-(5-cyclopropylpyridin-2-yl)-1,1-difluoro-3-(1H-tetrazol-1-yl)propan-2-ol]", "pest or weed control at 50 ppm": "80 to 100"}
{"smiles": "OC(Cn1cnnn1)(c1ccc(F)cc1F)C(F)(F)c1ccc(CCCOCC(F)(F)F)cn1", "note": "(stereo not shown) [Compound 45, 2-(2,4-Difluorophenyl)-1,1-difluoro-3-(1H-tetrazol-1-yl)-1-(5-(3-(2,2,2-trifluoroethoxy)propyl)pyridin-2-yl)propan-2-ol]", "pest or weed control at 50 ppm": "80 to 100"}
{"smiles": "CCOC/C=C/c1ccc(C(F)(F)C(O)(Cn2cnnn2)c2ccc(F)cc2F)nc1", "note": "(stereo not shown) [Compound 51, (E)-2-(2,4-Difluorophenyl)-1-(5-(3-ethoxyprop-1-en-1-yl)pyridin-2-yl)-1,1-difluoro-3-(1H-tetrazol-1-yl)propan-2-ol]", "pest or weed control at 50 ppm": "< 40"}
{"smiles": "CCOC/C=C\\c1ccc(C(F)(F)C(O)(Cn2cnnn2)c2ccc(F)cc2F)nc1", "note": "(stereo not shown) [Compound 52, (Z)-2-(2,4-Difluorophenyl)-1-(5-(3-ethoxyprop-1-en-1-yl)pyridin-2-yl)-1,1-difluoro-3-(1H-tetrazol-1-yl)propan-2-ol]", "pest or weed control at 50 ppm": "< 40"}
{"smiles": "CCOCCCc1ccc(C(F)(F)C(O)(Cn2cnnn2)c2ccc(F)cc2F)nc1", "note": "(stereo not shown) [Compound 53, 2-(2,4-Difluorophenyl)-1-(5-(3-ethoxypropyl)pyridin-2-yl)-1,1-difluoro-3-(1H-tetrazol-1-yl)propan-2-ol]", "pest or weed control at 50 ppm": "80 to 100"}
{"smiles": "CC(C)OC/C=C/c1ccc(C(F)(F)C(O)(Cn2cnnn2)c2ccc(F)cc2F)nc1", "note": "(stereo not shown) [Compound 54, (E)-2-(2,4-Difluorophenyl)-1,1-difluoro-1-(5-(3-isopropoxyprop-1-en-1-yl)pyridin-2-yl)-3-(1H-tetrazol-1-yl)propan-2-ol]", "pest or weed control at 50 ppm": "< 40"}
{"smiles": "OC(Cn1cnnn1)(c1ccc(F)cc1F)C(F)(F)c1ccc(CC2CC2)cn1", "note": "(stereo not shown) [Compound 59, 1-(5-(Cyclopropylmethyl)pyridin-2-yl)-2-(2,4-difluorophenyl)-1,1-difluoro-3-(1H-tetrazol-1-yl)propan-2-ol]", "pest or weed control at 50 ppm": "80 to 100"}
{"smiles": "OC(Cn1cnnn1)(c1ccc(Cl)cc1F)C(F)(F)c1ccc(CC2CC2)cn1", "note": "(stereo not shown) [Compound 60, 7-(4-Chloro-fluorophenyl)-1-(5-(cyclopropylmethyl)pyridin-2-yl)-1,1-difluoro-3-(1H-tetrazol-1-yl)propan-2-ol]", "pest or weed control at 50 ppm": "80 to 100"}
{"smiles": "O=C(c1ccc(C(F)(F)F)cc1)c1ccc(C(F)(F)C(O)(Cn2cnnn2)c2ccc(F)cc2F)nc1", "note": "(stereo not shown) [Compound 66, (6-(2-(2,4-Difluorophenyl)-1,1-difluoro-2-hydroxy-3-(1H-tetrazol-1-yl)propyl)pyridin-3-yl)(4-(trifluoromethyl)phenyl)methanone]", "pest or weed control at 50 ppm": "80 to 100"}
{"smiles": "O=C(c1ccc(Cl)cc1)c1ccc(C(F)(F)C(O)(Cn2cnnn2)c2ccc(F)cc2F)nc1", "note": "(stereo not shown) [Compound 67, (4-Chlorophenyl)(6-(2-(2,4-difluorophenyl)-1,1-difluoro-2-hydroxy-3-(1H-tetrazol-1-yl)propyl)pyridin-3-yl)methanone]", "pest or weed control at 50 ppm": "80 to 100"}
{"smiles": "O=C(c1ccc(OCC(F)(F)F)cc1)c1ccc(C(F)(F)C(O)(Cn2cnnn2)c2ccc(F)cc2F)nc1", "note": "(stereo not shown) [Compound 68, (6-(2-(2,4-Difluorophenyl)-1,1-difluoro-2-hydroxy-3-(1H-tetrazol-1-yl)propyl)pyridin-3-yl)(4-(2,2,2-trifluoroethoxy)phenyl)methanone]", "pest or weed control at 50 ppm": "80 to 100"}
{"smiles": "O=C(c1ccc(F)cc1)c1ccc(C(F)(F)C(O)(Cn2cnnn2)c2ccc(F)cc2F)nc1", "note": "(stereo not shown) [Compound 69, (6-(2-(2,4-Difluorophenyl)-1,1-difluoro-2-hydroxy-3-(1H-tetrazol-1-yl)propyl)pyridin-3-yl)(4-fluorophenyl)methanone]", "pest or weed control at 50 ppm": "80 to 100"}
{"smiles": "O=C(c1ccc(C(F)(F)C(O)(Cn2cnnn2)c2ccc(F)cc2F)nc1)c1ccc(Cl)c(F)c1", "note": "(stereo not shown) [Compound 71, (4-Chloro-3-fluorophenyl)(6-(2-(2,4-difluorophenyl)-1,1-difluoro-2-hydroxy-3-(1H-tetrazol-1-yl)propyl)pyridin-3-yl)methanone]", "pest or weed control at 50 ppm": "80 to 100"}
{"smiles": "OC(Cn1cnnn1)(c1ccc(F)cc1F)C(F)(F)c1ccc(Cc2ccc(C(F)(F)F)cc2)cn1", "note": "(stereo not shown) [Compound 73, 2-(2,4-Difluorophenyl)-1,1-difluoro-3-(1H-tetrazol-1-yl)-1-(5-(4-(trifluoromethyl)benzyl)pyridin-2-yl)propan-2-ol]", "pest or weed control at 50 ppm": "80 to 100"}
